# Laboratory results taken from ChEMBL document CHEMBL1681642, “Synthesis and biological activity of novel MIF antagonists” (Bioorg Med Chem Lett, 2011).
# Tested on: PBMC
# Assay: Antiinflammatory activity in human PBMC assessed as inhibition of MIF-induced IL-6 production at 100 uM after 21 hrs by ELISA
# Format: functional
# Conditions: not given
row,SMILES,inhibition at 100 µM
1,FC(F)(F)c1ccc(C2CC(c3ccoc3)=NO2)cc1 (stereo not given),50%
2,FC(F)(F)c1cccc(-n2cc(C3=NOC(c4ccccc4)C3)c3ccccc32)c1 (stereo not given),9%
3,O=C1CCCN1C1CC(c2cn(-c3cccc(C(F)(F)F)c3)c3ccccc23)=NO1 (stereo not given),52%
4,FC(F)(F)c1ccc(C2CC(c3cn(-c4cccc(C(F)(F)F)c4)c4ccccc34)=NO2)cc1 (stereo not given),6%
5,COc1ccc(C2CC(c3ccoc3)=NO2)cc1 (stereo not given),0%
6,COc1ccc(C2CC(c3cn(-c4cccc(C(F)(F)F)c4)c4ccccc34)=NO2)cc1 (stereo not given),13%

# Target: T1, Macrophage migration inhibitory factor (Homo sapiens) (UniProt P14174)
# T1 sequence (whole entry): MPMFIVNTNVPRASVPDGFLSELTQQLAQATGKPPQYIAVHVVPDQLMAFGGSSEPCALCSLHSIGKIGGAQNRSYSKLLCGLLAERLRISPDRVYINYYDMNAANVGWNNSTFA
# Assay: Inhibition of human purified MIF tautomerase activity at 10 uM after 30 mins
# Conditions: not given
row,SMILES,inhibition
1,FC(F)(F)c1ccc(C2CC(c3ccoc3)=NO2)cc1 (stereo not given),15%
2,FC(F)(F)c1cccc(-n2cc(C3=NOC(c4ccccc4)C3)c3ccccc32)c1 (stereo not given),6%
3,O=C1CCCN1C1CC(c2cn(-c3cccc(C(F)(F)F)c3)c3ccccc23)=NO1 (stereo not given),1%
4,FC(F)(F)c1ccc(C2CC(c3cn(-c4cccc(C(F)(F)F)c4)c4ccccc34)=NO2)cc1 (stereo not given),4%
5,COc1ccc(C2CC(c3ccoc3)=NO2)cc1 (stereo not given),10%
6,COc1ccc(C2CC(c3cn(-c4cccc(C(F)(F)F)c4)c4ccccc34)=NO2)cc1 (stereo not given),55%

# Tested on: PBMC
# Assay: Antiinflammatory activity in human PBMC assessed as inhibition of MIF-induced IL-6 production at 30 uM after 21 hrs by ELISA
# Format: functional
# Conditions: not given
row,SMILES,inhibition at 30 µM
1,FC(F)(F)c1ccc(C2CC(c3ccoc3)=NO2)cc1 (stereo not given),23%
2,FC(F)(F)c1cccc(-n2cc(C3=NOC(c4ccccc4)C3)c3ccccc32)c1 (stereo not given),18%
3,O=C1CCCN1C1CC(c2cn(-c3cccc(C(F)(F)F)c3)c3ccccc23)=NO1 (stereo not given),25%
4,FC(F)(F)c1ccc(C2CC(c3cn(-c4cccc(C(F)(F)F)c4)c4ccccc34)=NO2)cc1 (stereo not given),3%
5,COc1ccc(C2CC(c3ccoc3)=NO2)cc1 (stereo not given),0%
6,COc1ccc(C2CC(c3cn(-c4cccc(C(F)(F)F)c4)c4ccccc34)=NO2)cc1 (stereo not given),5%

# Target: T1, Macrophage migration inhibitory factor (Homo sapiens)
# Assay: Inhibition of human purified MIF tautomerase activity at 100 uM after 30 mins
# Conditions: not given
row,SMILES,inhibition
1,FC(F)(F)c1ccc(C2CC(c3ccoc3)=NO2)cc1 (stereo not given),41%
2,FC(F)(F)c1cccc(-n2cc(C3=NOC(c4ccccc4)C3)c3ccccc32)c1 (stereo not given),71%
3,O=C1CCCN1C1CC(c2cn(-c3cccc(C(F)(F)F)c3)c3ccccc23)=NO1 (stereo not given),10%
4,FC(F)(F)c1ccc(C2CC(c3cn(-c4cccc(C(F)(F)F)c4)c4ccccc34)=NO2)cc1 (stereo not given),51%
5,COc1ccc(C2CC(c3ccoc3)=NO2)cc1 (stereo not given),72%
6,COc1ccc(C2CC(c3cn(-c4cccc(C(F)(F)F)c4)c4ccccc34)=NO2)cc1 (stereo not given),97%

# Tested on: PBMC
# Assay: Antiinflammatory activity in human PBMC assessed as inhibition of MIF-induced TNFalpha production at 100 uM after 21 hrs by ELISA
# Format: functional
# Conditions: not given
row,SMILES,inhibition at 100 µM
1,FC(F)(F)c1ccc(C2CC(c3ccoc3)=NO2)cc1 (stereo not given),76%
2,FC(F)(F)c1cccc(-n2cc(C3=NOC(c4ccccc4)C3)c3ccccc32)c1 (stereo not given),0%
3,O=C1CCCN1C1CC(c2cn(-c3cccc(C(F)(F)F)c3)c3ccccc23)=NO1 (stereo not given),68%
4,FC(F)(F)c1ccc(C2CC(c3cn(-c4cccc(C(F)(F)F)c4)c4ccccc34)=NO2)cc1 (stereo not given),2%
5,COc1ccc(C2CC(c3ccoc3)=NO2)cc1 (stereo not given),2.5%
6,COc1ccc(C2CC(c3cn(-c4cccc(C(F)(F)F)c4)c4ccccc34)=NO2)cc1 (stereo not given),23%

# Tested on: not listed separately
# Assay: Cytotoxicity against human PBMC assessed as cell viability measured during cytokines production assay at 100 uM after 21 hrs by MTS assay
# Format: cell-based
# Conditions: PBMC (peripheral blood mononuclear cells)
row,SMILES,"cytotoxicity at 21 h, 100 µM"
1,FC(F)(F)c1ccc(C2CC(c3ccoc3)=NO2)cc1 (stereo not given),17%
2,FC(F)(F)c1cccc(-n2cc(C3=NOC(c4ccccc4)C3)c3ccccc32)c1 (stereo not given),8%
3,O=C1CCCN1C1CC(c2cn(-c3cccc(C(F)(F)F)c3)c3ccccc23)=NO1 (stereo not given),16%
4,FC(F)(F)c1ccc(C2CC(c3cn(-c4cccc(C(F)(F)F)c4)c4ccccc34)=NO2)cc1 (stereo not given),6%
5,COc1ccc(C2CC(c3ccoc3)=NO2)cc1 (stereo not given),12%
6,COc1ccc(C2CC(c3cn(-c4cccc(C(F)(F)F)c4)c4ccccc34)=NO2)cc1 (stereo not given),3%

# Target: T1, Macrophage migration inhibitory factor (Homo sapiens)
# Assay: Inhibition of MIF in human PBMC assessed as MIF secretion at 100 uM after 5 hrs by ELISA
# Conditions: not given
row,SMILES,inhibition
1,FC(F)(F)c1ccc(C2CC(c3ccoc3)=NO2)cc1 (stereo not given),60%
2,FC(F)(F)c1cccc(-n2cc(C3=NOC(c4ccccc4)C3)c3ccccc32)c1 (stereo not given),2%
3,O=C1CCCN1C1CC(c2cn(-c3cccc(C(F)(F)F)c3)c3ccccc23)=NO1 (stereo not given),0%
4,FC(F)(F)c1ccc(C2CC(c3cn(-c4cccc(C(F)(F)F)c4)c4ccccc34)=NO2)cc1 (stereo not given),5%
5,COc1ccc(C2CC(c3ccoc3)=NO2)cc1 (stereo not given),82%
6,COc1ccc(C2CC(c3cn(-c4cccc(C(F)(F)F)c4)c4ccccc34)=NO2)cc1 (stereo not given),1%

# Target: T1, Macrophage migration inhibitory factor (Homo sapiens)
# Assay: Inhibition of MIF in human PBMC assessed as MIF secretion at 10 uM after 5 hrs by ELISA
# Conditions: not given
row,SMILES,inhibition
1,FC(F)(F)c1ccc(C2CC(c3ccoc3)=NO2)cc1 (stereo not given),31%
2,FC(F)(F)c1cccc(-n2cc(C3=NOC(c4ccccc4)C3)c3ccccc32)c1 (stereo not given),11%
3,O=C1CCCN1C1CC(c2cn(-c3cccc(C(F)(F)F)c3)c3ccccc23)=NO1 (stereo not given),0%
4,FC(F)(F)c1ccc(C2CC(c3cn(-c4cccc(C(F)(F)F)c4)c4ccccc34)=NO2)cc1 (stereo not given),20%
5,COc1ccc(C2CC(c3ccoc3)=NO2)cc1 (stereo not given),38%
6,COc1ccc(C2CC(c3cn(-c4cccc(C(F)(F)F)c4)c4ccccc34)=NO2)cc1 (stereo not given),0%

# Tested on: not listed separately
# Assay: Cytotoxicity against human PBMC assessed as cell viability measured during MIF secretion assay at 100 uM after 21 hrs by MTS assay
# Format: cell-based
# Conditions: PBMC (peripheral blood mononuclear cells)
row,SMILES,"cytotoxicity at 21 h, 100 µM"
1,FC(F)(F)c1ccc(C2CC(c3ccoc3)=NO2)cc1 (stereo not given),9%
2,FC(F)(F)c1cccc(-n2cc(C3=NOC(c4ccccc4)C3)c3ccccc32)c1 (stereo not given),0%
3,O=C1CCCN1C1CC(c2cn(-c3cccc(C(F)(F)F)c3)c3ccccc23)=NO1 (stereo not given),15%
4,FC(F)(F)c1ccc(C2CC(c3cn(-c4cccc(C(F)(F)F)c4)c4ccccc34)=NO2)cc1 (stereo not given),0%
5,COc1ccc(C2CC(c3ccoc3)=NO2)cc1 (stereo not given),0%
6,COc1ccc(C2CC(c3cn(-c4cccc(C(F)(F)F)c4)c4ccccc34)=NO2)cc1 (stereo not given),0%

# Tested on: PBMC
# Assay: Antiinflammatory activity in human PBMC assessed as inhibition of MIF-induced IL1-beta production at 100 uM after 21 hrs by ELISA
# Format: functional
# Conditions: not given
row,SMILES,inhibition at 100 µM
1,FC(F)(F)c1ccc(C2CC(c3ccoc3)=NO2)cc1 (stereo not given),67%
2,FC(F)(F)c1cccc(-n2cc(C3=NOC(c4ccccc4)C3)c3ccccc32)c1 (stereo not given),12%
3,O=C1CCCN1C1CC(c2cn(-c3cccc(C(F)(F)F)c3)c3ccccc23)=NO1 (stereo not given),68%
4,FC(F)(F)c1ccc(C2CC(c3cn(-c4cccc(C(F)(F)F)c4)c4ccccc34)=NO2)cc1 (stereo not given),15%
5,COc1ccc(C2CC(c3ccoc3)=NO2)cc1 (stereo not given),13%
6,COc1ccc(C2CC(c3cn(-c4cccc(C(F)(F)F)c4)c4ccccc34)=NO2)cc1 (stereo not given),37%
